Laboratory results reported in patent publication US20230203060A1 (GENFLEET THERAPEUTICS (SHANGHAI) INC., priority 2020, published 2023).

What was measured:
[1] = tested on: phosphorylated ERK downstream of KRAS G12C in MIA PaCa2 cells; assay: Cell p-ERK detection experiment (HTRF) in MIA PaCa2; assay type: cell-based, human; settings: Homo sapiens, MIA PaCa-2, 2 h, MIA PaCa2 cells, 2 hours with compound, Advance ERK phospho-T202/Y204 HTRF kit; read-out: p-ERK IC50
Source text: Raw materials and instruments: MIA PaCa-2 purchased from ATCC; article number: CRL-1420; batch number: 63143594; DMEM purchased from Gibco; article number: 11995-065; batch number: 2186878; FBS purchased from Gibco; article number: 10099-141; batch number: 2109290CP; Horse serum purchased from Gibco; article number: 16050-122; batch number: 1818976; Trypsin-EDTA purchased from Gibco; article number: 25200-072; batch number: 2085552; PS purchased from Gibco; article number: 15140-122; batch number: 2145451; DMSO purchased from VWR AMRESCO; article number: 0231-500ML; batch number: 0457C072; 96-well cell culture plate purchased from Corning; article number: 3599; batch number: 22718601; white opaque 96-well plate purchased from Cisbio; article number: 66PL96025; batch number: N°05; Advance ERK phospho-T202/Y204 kit purchased from Cisbio; article number: 64AERPEH; batch number: 11D; microplate reader purchased from PerkinElmer; model: Envision MLD2105-0020; equipment number 1050369.
MIA PaCa2 was a KRAS G12C mutant human pancreatic cancer cell line cultured in 10% FBS+2.5% Horse serum DMEM culture medium. Cells at logarithmic growth stage were taken, digested with trypsin-EDTA, then collected and counted, and 2.5E4 cells were inoculated in a 96-well cell culture plate and cultured overnight. A 3.16-fold gradient concentration stock solution of 1000× compound was prepared with DMSO, and diluted 200-fold to 5× compound stock solution with culture medium. On the second day after cell inoculation, 5× compound stock solution was added to each cell culture well, with a final concentration of 1× and a DMSO content of 0.1%. DMSO was used as experimental control (control). After the compound was added and cultured for two hours, the residual culture medium was removed. 50 μL of cell lysate (from Advance ERK phospho-T202/Y204 kit, the same below) was added to each well, mixed well and incubated for 30 minutes, and then 16 μL of the mixed solution was transferred to a white opaque 96-well plate, and 16 μL of cell lysate was added to the blank wells. After the transfer was completed, 4 μL of p-ERK HTRF antibody (from Advance ERK phospho-T202/Y204 kit) mixture was added to each well, incubated for 4 hours, and the fluorescence value was read with the microplate reader. The inhibition rate of the compound IR (%)=(RLU control -RLU compound)/(RLU control-RLU blank)×100% was calculated. The gradient dilution concentration of the compound and the corresponding cell proliferation inhibition rate were fitted by Prism 8 four-parameter method, and the IC50 value was calculated. The compounds prepared in the above embodiments of the present disclosure have inhibitory activity of 0.0001 μM to 1 μM on the phosphorylated ERK level downstream of the cell channel of KRAS G12C protein mutant; some compounds have inhibitory activity of 0.001 μM to 1 μM or 0.001 μM to 0.5 μM on phosphorylated ERK level downstream of cell channel of KRAS G12C protein mutant.

KRAS G12C = target: T1, KRAS G12C (Homo sapiens, UniProt P01116, G12C); assay: KRAS G12C NEA-HTRF experiment (SOS1-catalyzed displacement of GDP by GTP); assay type: biochemical
T1 construct: purchased Reactionbiology
Source text: Raw materials and instruments: KRAS G12C (his-tag) purchased from Reactionbiology; batch number 3496; SOS1 purchased from Reactionbiology; batch number: 3501; GTP purchased from Sigma; article number: G8877; batch number: SLBV1450; Tris-HC1 purchased from Sigma; EDTA purchased from absin; article number: abs42017668; batch number: JE20; NaCl purchased from Sigma; article number: 55886; batch number: SLBW4193; MgCl2 purchased from Shyuanye; article number: R21455; batch number: L07S9G69806; HEPES purchased from Life Technologies; article number: 15630-080; batch number: 2037042; DTT purchased from Thermo Fisher; article number: R0862; batch number: 00608918; Triton X-100 purchased from Sigma; article number: T8787-100 ML; batch number: SLBW7103; DY647-labeled GDP purchased from Jena Bioscience; article number: NU-840-647P1; batch number: BM019-045; Anti-6H1S-Tb purchased from Cisbio; article number: 61H12TLA; batch number: 13A; Bradford Assay Kit purchased from Thermo Fisher; article number: 23246; batch number: UG287474; white opaque 96-well plate purchased from Cisbio; article number: 66PL96025; batch number: N°06; NAP-5 column purchased from GE Healthcare; article number: 17085301; batch number: 16995164; mircoplate reader purchased from PerkinElmer; model: Envision MLD2105-0020; equipment number 1050369. The effect of compounds on SOS1-catalyzed displacement of GDP by GTP on KRAS protein was examined using a homogeneous time-resolved fluorescence (HTRF) method. 30 μM 6×his-tagged KRAS G12C recombinant protein was incubated with 80 μM fluorescent dye DY647-labeled GDP in labeling buffer (1 mM DTT, 7.5 mM EDTA, 25 mM Tris-HCl, 45 mM NaCl) at 20° C. in the dark for 2 hours, purified using NAP-5 column, and then protein quantification was performed with Bradford Assay Kit after purification to determine the concentration of KRAS […] 3.16-fold gradient concentration stock solution of 1000× compound was prepared with DMSO, and diluted 250-fold to 4× compound stock solution with reaction buffer (40 mM HEPES, 10 mM MgCl2, 1 mM DTT, 0.002% Triton X-100). KRAS G12C-GDP/Tb working solution (40 nM KRAS […] Tb) and SOS1/GTP working solution (0.2 μM SOS1, 200 μM GTP) were prepared using the reaction buffer. A white opaque 96-well plate was taken, and 5 μL of 4× compound stock solution and 10 μL of KRAS G12C-GDP/Tb working solution were added to each well. 5 μL of reaction buffer instead of 4x compound stock solution was used in the control well. After incubation in the dark for 15 minutes at 20° C., 5μL of SOS1/GTP working solution was added thereto, and the fluorescence value (excitation wavelength: 320 nm, emission wavelength: 615 nm and 665 nm) was read after incubating at 20° C. in the dark for 2 hours. Another T0 group was set up with 10 μL reaction buffer+10 μL KRAS G12C-GDP/Tb working solution, and the fluorescence value was read directly by the microplate reader. The fluorescence signal ratio RLU=(665 nm signal/615 nm signal)×10^4; and the compound inhibition rate IR (%)=(RLUcompound-RLUcontrol)/(RLUT0-RLUcontrol)×100% were calculated. The IC50 value was calculated by fitting the gradient dilution concentration of compound and the corresponding inhibition rate with the four-parameter method. The NEA activity of the compounds prepared in the above embodiments of the present disclosure was 0.0001 μM to 1 μM; the inhibitory activity of some compounds on KRAS G12C mutant MIA PaCa-2 cells was 0.001 μM to 0.5 μM or 0.001 μM to 0.1 μM.

T1 sequence (P01116 1-188 isoform P01116-2 G12C): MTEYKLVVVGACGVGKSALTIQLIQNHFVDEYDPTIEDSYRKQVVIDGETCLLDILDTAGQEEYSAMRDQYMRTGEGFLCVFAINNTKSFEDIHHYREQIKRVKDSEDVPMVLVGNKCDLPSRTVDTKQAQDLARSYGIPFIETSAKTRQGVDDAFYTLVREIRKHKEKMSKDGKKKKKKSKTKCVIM

C=CC(=O)N1CCN2C(=O)c3c(N4C[C@H](NCC(F)(F)F)CC4(C)C)nc(-c4ccccc4F)c(Cl)c3OC[C@H]2C1 (single isomer, unassigned) [Z662-2]
IC50 [1]: 0.586 µM
IC50 (KRAS G12C): 0.235 µM

C=CC(=O)N1CCN2C(=O)c3c(N4CC(N5CC(C(F)(F)F)C5)CC4(C)C)nc(-c4ccccc4F)c(Cl)c3OC[C@H]2C1 (single isomer, unassigned) [Z608-2]
IC50 [1]: 0.286 µM
IC50 (KRAS G12C): 0.0758 µM

C=CC(=O)N1CCN2C(=O)c3c(N4C[C@H](C)N(C)C[C@@H]4C)nc(-c4ccccc4F)c(Cl)c3OC[C@H]2C1 [Z483, (R)-8-acryloyl-4-chloro-3-(2-fluorophenyl)-1-((2S,5S)-2,4,5-trimethylpiperazin-1-yl)-6,6a,7,8,9,10-hexahydro-12H-pyrazino[2,1-c]pyrido[3,4-f][1,4]oxazepin-12-one]
IC50 [1]: 0.26 µM
IC50 (KRAS G12C): 0.34 µM

C=CC(=O)N1CCN2C(=O)c3c(N4CC(N(C)CC)CC4(C)C)nc(-c4ccccc4F)c(Cl)c3OC[C@H]2C1 (stereo partly drawn) [Z657, (6aR)-8-acryloyl-4-chloro-1-(4-(methylethylamine)-2,2-dimethylpyrrolidin-1-yl)-3-(2-fluorophenyl)-6,6a,7,8,9,10-hexahydro-12H-pyrazino[2,1-c]pyrido[3,4-f][1,4]oxazepin-12-one]
IC50 [1]: 0.093 µM
IC50 (KRAS G12C): 0.0315 µM

C=CC(=O)N1CCN2C(=O)c3c(N4C[C@@H](N5CC(F)C5)CC4(C)C)nc(-c4ccccc4F)c(F)c3OC[C@H]2C1 [Z654-1, (R)-8-acryloyl-4-fluoro-1-((S)-4-(3-fluoroazetidin-1-yl)-2,2-dimethylpyrrolidin-1-yl)-3-(2-fluorophenyl)-6,6a,7,8,9,10-hexahydro-12H-pyrazino[2,1-c]pyrido[3,4-f][1,4]oxazepin-12-one]
IC50 [1]: 1.73 µM
IC50 (KRAS G12C): 1.82 µM
